Our source for the IC50 values is US9637491B2, “Pyrazolo[4,3-D]pyrimidines as kinase inhibitors” (Origenis GmbH, priority 2012, dated 2017).

As a reminder, the IC50 is the concentration that inhibits the measured activity by half.

In this experiment the target is T1, SYK kinase (Homo sapiens, UniProt P43405).
T1 construct: purchased Invitrogen, Carlsbad
Description: SYK assay (OMNIA Kinase Assay, Invitrogen). The class given is biochemical. The conditions noted are these: SYK Activities; 1 mM ATP, 10 μM Omnia Peptide Substrate Tyr 7, 30° C. Summed up: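 Continuous-read fluorescence kinase assay: SOX-labelled Tyr 7 peptide (10 μM) with 1 mM ATP and 0.2 mM DTT, 30° C, reaction started by adding SYK. Fluorescence (ex 360/em 485 nm) read every 30 s for 30 min. IC50 from sigmoidal fit of reaction velocity versus inhibitor concentration.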
Regarding `c1ccc(Sc2ccc(Nc3nc(-c4ccc5cn[nH]c5c4)nc4cn[nH]c34)cc2)cc1` [Example 515, 5-(1H-indazol-6-yl)-N-(4-(phenylthio)phenyl)-1H-pyrazolo[4,3-d]pyrimidin-7-amine], the half-inhibitory concentration (IC50) fell in the range of 100 to 1000 nM. As to `O=C1CCCc2ccc(Nc3nc(-c4ccc5cn[nH]c5c4)nc4cn[nH]c34)cc2N1` [Example 516, 8-((5-(1H-indazol-6-yl)-1H-pyrazolo[4,3-d]pyrimidin-7-yl)amino)-4,5-dihydro-1H-benzo[b]azepin-2(3H)-one], the half-maximal inhibitory concentration (IC50) was in the range of 10 to 100 nM. The result for `FC(F)(F)Cn1cc(Nc2nc(-c3ccc4cn[nH]c4c3)nc3cn[nH]c23)cn1` [Example 517, 5-(1H-indazol-6-yl)-N-(1-(2,2,2-trifluoroethyl)-1H-pyrazol-4-yl)-1H-pyrazolo[4,3-d]pyrimidin-7-amine] reads 10 to 100 nM; that for `O=C1COc2ccc(Nc3nc(-c4ccc5cn[nH]c5c4)nc4cn[nH]c34)cc2N1` [Example 519, 6-((5-(1H-indazol-6-yl)-1H-pyrazolo[4,3-d]pyrimidin-7-yl)amino)-2H-benzo[b][1,4]oxazin-3(4H)-one], < 10 nM. Next, `O=C1CSc2ccc(Nc3nc(-c4ccc5cn[nH]c5c4)nc4cn[nH]c34)cc2N1` [Example 520, 6-((5-(1H-indazol-6-yl)-1H-pyrazolo[4,3-d]pyrimidin-7-yl)amino)-2H-benzo[b][1,4]thiazin-3(4H)-one]: 100 to 1000 nM. The result for `O=C1CCCc2ccc(Nc3nc(-c4c(F)cccc4F)nc4cn[nH]c34)cc2N1` [Example 521, 8-((5-(2,6-difluorophenyl)-1H-pyrazolo[4,3-d]pyrimidin-7-yl)amino)-4,5-dihydro-1H-benzo[b]azepin-2(3H)-one] reads 100 to 1000 nM; that for `OC1CCN(c2ccc(Nc3nc(-c4c(F)cccc4F)nc4cn[nH]c34)cc2)CC1` [Example 522, 1-(4-((5-(2,6-difluorophenyl)-1H-pyrazolo[4,3-d]pyrimidin-7-yl)amino)phenyl)piperidin-4-ol], 10 to 100 nM. The compound `COc1ccc(Nc2nc(-c3c(F)cccc3F)nc3cn[nH]c23)cc1NC(C)=O` [Example 523, N-(5-((5-(2,6-difluorophenyl)-1H-pyrazolo[4,3-d]pyrimidin-7-yl)amino)-2-methoxyphenyl)acetamide] registered a 50% inhibitory concentration (IC50) of 100 to 1000 nM. On to `NS(=O)(=O)c1cccc(-c2nc(Nc3ccc4c(c3)NC(=O)CCC4)c3[nH]ncc3n2)c1` [Example 525, 3-(7-((2-oxo-2,3,4,5-tetrahydro-1H-benzo[b]azepin-8-yl)amino)-1H-pyrazolo[4,3-d]pyrimidin-5-yl)benzenesulfonamide], for which the IC50 fell in the range of 10 to 100 nM. Regarding `NS(=O)(=O)c1cccc(-c2nc(Nc3cnn(CCO)c3)c3[nH]ncc3n2)c1` [Example 526, 3-(7-((1-(2-hydroxyethyl)-1H-pyrazol-4-yl)amino)-1H-pyrazolo[4,3-d]pyrimidin-5-yl)benzenesulfonamide], the IC50 was 10 to 100 nM. Consider `CS(=O)(=O)Nc1cccc(-c2nc(Nc3ccc4c(c3)NC(=O)CCC4)c3[nH]ncc3n2)c1` [Example 529, N-(3-(7-((2-oxo-2,3,4,5-tetrahydro-1H-benzo[b]azepin-8-yl)amino)-1H-pyrazolo[4,3-d]pyrimidin-5-yl)phenyl)methanesulfonamide], for which the IC50 lay in the range of 100 to 1000 nM. In the case of `Nc1cccc(-c2nc(Nc3cnn(C4CCOCC4)c3)c3[nH]ncc3n2)c1` [Example 530, 5-(3-aminophenyl)-N-(1-(tetrahydro-2H-pyran-4-yl)-1H-pyrazol-4-yl)-1H-pyrazolo[4,3-d]pyrimidin-7-amine], the concentration for half-maximal inhibition (IC50) fell in the range of 10 to 100 nM. The result for `Nc1ccccc1-c1nc(Nc2cnn(C3CCOCC3)c2)c2n[nH]cc2n1` [Example 531, 5-(2-aminophenyl)-N-(1-(tetrahydro-2H-pyran-4-yl)-1H-pyrazol-4-yl)-2H-pyrazolo[4,3-d]pyrimidin-7-amine] reads 100 to 1000 nM; that for `CN1CCC(n2cc(Nc3nc(-c4nccs4)nc4cn[nH]c34)cn2)CC1` [Example 535, N-(1-(1-methylpiperidin-4-yl)-1H-pyrazol-4-yl)-5-(thiazol-2-yl)-1H-pyrazolo[4,3-d]pyrimidin-7-amine], 10 to 100 nM. Regarding `CN1CCN(c2ccc(Nc3nc(-c4ccc5cn[nH]c5c4)nc4cn[nH]c34)cc2CO)CC1` [Example 536, (5-((5-(1H-indazol-6-yl)-1H-pyrazolo[4,3-d]pyrimidin-7-yl)amino)-2-(4-methylpiperazin-1-yl)phenyl)methanol], the IC50 was < 10 nM. On to `Fc1cccc(F)c1-c1nc(Nc2ccc3c(c2)NCCO3)c2[nH]ncc2n1` [Example 537, N-(5-(2,6-difluorophenyl)-1H-pyrazolo[4,3-d]pyrimidin-7-yl)-3,4-dihydro-2H-benzo[b][1,4]oxazin-6-amine], for which the 50% inhibitory concentration (IC50) is 10 to 100 nM. Take `CC(=O)Nc1cc(Nc2nc(-c3c(F)cccc3F)nc3cn[nH]c23)ccc1N1CCN(C(C)=O)CC1` [Example 538, N-(2-(4-acetylpiperazin-1-yl)-5-((5-(2,6-difluorophenyl)-1H-pyrazolo[4,3-d]pyrimidin-7-yl)amino)phenyl)acetamide]: the IC50 was in the range of 100 to 1000 nM. Compound `CN1CCN(c2ccc(Nc3nc(-c4c(F)cccc4F)nc4cn[nH]c34)cc2Cl)CC1` [Example 539, N-(3-chloro-4-(4-methylpiperazin-1-yl)phenyl)-5-(2,6-difluorophenyl)-1H-pyrazolo[4,3-d]pyrimidin-7-amine] registered an IC50 of 10 to 100 nM. The compound `Oc1c(Cl)cc(Nc2nc(-c3c(F)cccc3F)nc3cn[nH]c23)cc1Cl` [Example 540, 2,6-dichloro-4-((5-(2,6-difluorophenyl)-1H-pyrazolo[4,3-d]pyrimidin-7-yl)amino)phenol] had an IC50 of 10 to 100 nM.
